{
  "source": "paper PMC9569420",
  "about": "(Communications Biology, 2022)",
  "key": {"[1]": {"experiment": "in vitro", "settings": "dog, MDCK-MDR1"}, "[2]": {"tested_on": "MDCK-MDR1 cell", "settings": "5 µM"}, "[3]": {"biological_target": "T1, EIF2AK1 (Homo sapiens, UniProt Q9BQI3)", "T1 construct": "purchased Reaction Biology Corporation", "T1 sequence (Q9BQI3 whole entry)": "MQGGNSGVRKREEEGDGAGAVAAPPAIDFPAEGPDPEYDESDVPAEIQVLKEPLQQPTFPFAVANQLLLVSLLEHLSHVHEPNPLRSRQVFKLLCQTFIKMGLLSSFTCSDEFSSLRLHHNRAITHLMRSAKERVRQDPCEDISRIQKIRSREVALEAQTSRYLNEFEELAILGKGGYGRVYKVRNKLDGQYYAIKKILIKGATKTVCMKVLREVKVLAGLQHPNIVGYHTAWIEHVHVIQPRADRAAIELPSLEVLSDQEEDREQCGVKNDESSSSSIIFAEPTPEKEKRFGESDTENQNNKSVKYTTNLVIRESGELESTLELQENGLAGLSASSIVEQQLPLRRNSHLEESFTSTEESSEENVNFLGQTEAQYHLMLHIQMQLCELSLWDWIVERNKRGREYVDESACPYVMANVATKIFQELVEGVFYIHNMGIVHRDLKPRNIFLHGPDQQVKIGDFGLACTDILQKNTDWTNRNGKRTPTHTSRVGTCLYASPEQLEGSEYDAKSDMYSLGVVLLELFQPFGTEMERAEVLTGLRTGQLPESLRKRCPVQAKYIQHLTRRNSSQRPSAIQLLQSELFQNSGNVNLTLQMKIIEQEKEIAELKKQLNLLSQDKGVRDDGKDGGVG", "experiment": "HotSpot kinase assay", "type": "biochemical", "settings": "read-out: IC50 (M) of Control Compound", "protocol": "(§1) Kinase activity were performed by Reaction Biology Corporation using the “HotSpot” assay platform modified from the published procedure."}, "[4]": {"biological_target": "T2, ZAK/MLTK (Homo sapiens, UniProt Q9NYL2)", "T2 construct": "purchased Reaction Biology Corporation", "experiment": "HotSpot kinase assay", "type": "biochemical", "settings": "read-out: IC50 (M) of Control Compound", "protocol": "as §1"}, "[5]": {"biological_target": "T3, PDK1/PDHK1 (Homo sapiens, UniProt Q15118)", "T3 construct": "purchased Reaction Biology Corporation", "T3 sequence (Q15118 29-436)": "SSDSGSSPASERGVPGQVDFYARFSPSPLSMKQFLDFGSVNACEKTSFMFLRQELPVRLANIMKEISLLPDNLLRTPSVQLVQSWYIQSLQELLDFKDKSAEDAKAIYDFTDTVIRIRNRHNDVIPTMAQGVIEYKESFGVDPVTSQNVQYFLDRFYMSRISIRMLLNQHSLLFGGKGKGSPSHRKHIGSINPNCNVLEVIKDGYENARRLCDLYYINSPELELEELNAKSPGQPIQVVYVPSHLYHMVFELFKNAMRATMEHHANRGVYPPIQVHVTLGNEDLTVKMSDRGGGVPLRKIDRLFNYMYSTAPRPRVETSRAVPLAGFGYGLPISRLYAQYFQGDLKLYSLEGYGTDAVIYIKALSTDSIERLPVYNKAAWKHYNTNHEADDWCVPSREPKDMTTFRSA", "experiment": "HotSpot kinase assay", "type": "biochemical", "settings": "read-out: IC50 (M) of Control Compound", "protocol": "as §1"}, "[6]": {"biological_target": "T4, PDK2/PDHK2 (Homo sapiens, UniProt Q15119)", "T4 construct": "purchased Reaction Biology Corporation", "experiment": "HotSpot kinase assay", "type": "biochemical", "settings": "read-out: IC50 (M) of Control Compound", "protocol": "as §1"}, "[7]": {"biological_target": "T5, PDK3/PDHK3 (Homo sapiens, UniProt Q15120)", "T5 construct": "purchased Reaction Biology Corporation", "T5 sequence (Q15120 whole entry)": "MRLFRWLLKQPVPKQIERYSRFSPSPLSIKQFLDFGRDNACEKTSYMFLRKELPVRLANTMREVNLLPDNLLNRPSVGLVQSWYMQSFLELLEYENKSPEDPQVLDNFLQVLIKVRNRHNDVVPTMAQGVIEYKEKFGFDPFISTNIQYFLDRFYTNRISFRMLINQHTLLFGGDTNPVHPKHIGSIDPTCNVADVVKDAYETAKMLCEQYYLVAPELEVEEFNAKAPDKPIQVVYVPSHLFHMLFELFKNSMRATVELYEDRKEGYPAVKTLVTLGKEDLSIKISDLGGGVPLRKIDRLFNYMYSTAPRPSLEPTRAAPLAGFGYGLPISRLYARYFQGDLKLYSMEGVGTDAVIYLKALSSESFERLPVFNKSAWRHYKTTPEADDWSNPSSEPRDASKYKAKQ", "experiment": "HotSpot kinase assay", "type": "biochemical", "settings": "read-out: IC50 (M) of Control Compound", "protocol": "as §1"}, "[8]": {"biological_target": "T6, ARAF (Homo sapiens, UniProt P10398)", "T6 construct": "purchased Reaction Biology Corporation", "T6 sequence (P10398 whole entry)": "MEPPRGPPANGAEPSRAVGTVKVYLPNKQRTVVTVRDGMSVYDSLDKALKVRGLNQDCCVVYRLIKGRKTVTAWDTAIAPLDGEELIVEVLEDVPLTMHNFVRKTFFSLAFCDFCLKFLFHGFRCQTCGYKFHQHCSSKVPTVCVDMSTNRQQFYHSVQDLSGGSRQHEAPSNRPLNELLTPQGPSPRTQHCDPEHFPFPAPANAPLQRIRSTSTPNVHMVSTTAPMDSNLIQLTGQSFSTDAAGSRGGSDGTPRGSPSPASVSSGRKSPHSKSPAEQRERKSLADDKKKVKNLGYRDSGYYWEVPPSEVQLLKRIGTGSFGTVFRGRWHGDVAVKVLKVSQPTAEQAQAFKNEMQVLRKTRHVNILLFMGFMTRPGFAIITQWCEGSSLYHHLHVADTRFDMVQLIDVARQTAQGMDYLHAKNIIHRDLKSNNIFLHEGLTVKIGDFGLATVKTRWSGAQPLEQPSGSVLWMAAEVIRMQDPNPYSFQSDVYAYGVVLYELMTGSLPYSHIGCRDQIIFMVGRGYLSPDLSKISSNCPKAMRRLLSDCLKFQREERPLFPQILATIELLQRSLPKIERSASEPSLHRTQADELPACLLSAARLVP", "experiment": "HotSpot kinase assay", "type": "biochemical", "settings": "read-out: IC50 (M) of Control Compound", "protocol": "as §1"}, "[9]": {"biological_target": "T7, PDK4/PDHK4 (Homo sapiens, UniProt Q16654)", "T7 construct": "purchased Reaction Biology Corporation", "experiment": "HotSpot kinase assay", "type": "biochemical", "settings": "read-out: IC50 (M) of Control Compound", "protocol": "as §1"}, "[10]": {"biological_target": "T8, DYRK4 (Homo sapiens, UniProt Q9NR20)", "T8 construct": "purchased Reaction Biology Corporation", "T8 sequence (Q9NR20 whole entry)": "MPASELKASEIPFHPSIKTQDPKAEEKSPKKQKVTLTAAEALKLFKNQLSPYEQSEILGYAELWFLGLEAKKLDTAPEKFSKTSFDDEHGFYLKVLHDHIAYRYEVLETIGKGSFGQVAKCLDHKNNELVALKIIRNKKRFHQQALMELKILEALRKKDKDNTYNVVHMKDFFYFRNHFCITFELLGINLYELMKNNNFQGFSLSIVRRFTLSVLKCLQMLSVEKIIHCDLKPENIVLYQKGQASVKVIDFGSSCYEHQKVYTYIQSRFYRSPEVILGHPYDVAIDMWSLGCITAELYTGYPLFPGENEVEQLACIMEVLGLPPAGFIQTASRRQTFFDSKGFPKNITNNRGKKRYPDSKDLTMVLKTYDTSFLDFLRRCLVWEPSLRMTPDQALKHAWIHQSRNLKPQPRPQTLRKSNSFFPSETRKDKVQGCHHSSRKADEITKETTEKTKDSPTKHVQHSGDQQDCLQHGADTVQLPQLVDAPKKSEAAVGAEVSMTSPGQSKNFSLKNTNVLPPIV", "experiment": "HotSpot kinase assay", "type": "biochemical", "settings": "read-out: IC50 (M) of Control Compound", "protocol": "as §1"}, "[11]": {"biological_target": "T9, CK2a (Homo sapiens, UniProt P68400)", "T9 construct": "purchased Reaction Biology Corporation", "T9 sequence (P68400 whole entry)": "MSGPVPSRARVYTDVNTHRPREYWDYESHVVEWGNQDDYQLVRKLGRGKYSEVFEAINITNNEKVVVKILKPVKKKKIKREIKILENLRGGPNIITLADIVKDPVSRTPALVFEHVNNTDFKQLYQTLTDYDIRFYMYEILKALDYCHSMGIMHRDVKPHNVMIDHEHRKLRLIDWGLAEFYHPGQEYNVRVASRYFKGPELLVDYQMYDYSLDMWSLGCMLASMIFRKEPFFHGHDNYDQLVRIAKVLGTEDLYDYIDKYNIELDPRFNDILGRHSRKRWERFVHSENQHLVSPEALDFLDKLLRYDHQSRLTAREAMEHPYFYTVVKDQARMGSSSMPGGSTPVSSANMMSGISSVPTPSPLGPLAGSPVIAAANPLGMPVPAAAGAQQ", "experiment": "HotSpot kinase assay", "type": "biochemical", "settings": "read-out: IC50 (M) of Control Compound", "protocol": "as §1"}, "[12]": {"biological_target": "T10, NEK3 (Homo sapiens, UniProt P51956)", "T10 construct": "purchased Reaction Biology Corporation", "T10 sequence (P51956 whole entry)": "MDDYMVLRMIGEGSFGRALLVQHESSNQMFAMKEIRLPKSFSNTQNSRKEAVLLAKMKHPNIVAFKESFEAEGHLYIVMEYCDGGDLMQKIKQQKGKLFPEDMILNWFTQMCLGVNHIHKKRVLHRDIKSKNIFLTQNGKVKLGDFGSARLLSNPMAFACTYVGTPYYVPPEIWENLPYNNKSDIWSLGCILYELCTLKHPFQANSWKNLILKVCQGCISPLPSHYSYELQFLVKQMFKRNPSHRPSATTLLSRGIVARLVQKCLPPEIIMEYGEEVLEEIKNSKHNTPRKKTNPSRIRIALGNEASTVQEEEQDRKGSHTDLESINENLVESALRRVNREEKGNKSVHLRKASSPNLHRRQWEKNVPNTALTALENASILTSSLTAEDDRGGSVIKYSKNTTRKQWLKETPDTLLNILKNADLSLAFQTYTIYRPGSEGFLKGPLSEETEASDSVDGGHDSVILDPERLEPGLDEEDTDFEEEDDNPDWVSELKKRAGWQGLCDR", "experiment": "HotSpot kinase assay", "type": "biochemical", "settings": "read-out: IC50 (M) of Control Compound", "protocol": "as §1"}, "[13]": {"biological_target": "T11, TGFBR2 (Homo sapiens, UniProt P37173)", "T11 construct": "purchased Reaction Biology Corporation", "T11 sequence (P37173 23-567)": "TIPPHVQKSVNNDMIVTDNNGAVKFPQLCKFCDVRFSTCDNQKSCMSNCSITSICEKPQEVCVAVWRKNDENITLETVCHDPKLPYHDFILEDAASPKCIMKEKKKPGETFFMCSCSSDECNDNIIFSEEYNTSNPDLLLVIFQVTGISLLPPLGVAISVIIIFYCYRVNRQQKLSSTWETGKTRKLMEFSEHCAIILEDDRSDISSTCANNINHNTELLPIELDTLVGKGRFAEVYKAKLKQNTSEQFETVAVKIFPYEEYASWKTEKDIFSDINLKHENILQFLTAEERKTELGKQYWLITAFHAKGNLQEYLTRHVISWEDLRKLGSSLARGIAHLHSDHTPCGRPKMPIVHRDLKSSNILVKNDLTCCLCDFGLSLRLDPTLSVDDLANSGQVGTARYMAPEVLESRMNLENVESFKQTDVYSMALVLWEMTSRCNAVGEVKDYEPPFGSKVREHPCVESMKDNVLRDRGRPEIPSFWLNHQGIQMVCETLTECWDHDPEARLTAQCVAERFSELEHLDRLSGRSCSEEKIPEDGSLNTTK", "experiment": "HotSpot kinase assay", "type": "biochemical", "settings": "read-out: IC50 (M) of Control Compound", "protocol": "as §1"}, "[14]": {"biological_target": "T12, TRPM7/CHAK1 (Homo sapiens, UniProt Q96QT4)", "T12 construct": "purchased Reaction Biology Corporation", "experiment": "HotSpot kinase assay", "type": "biochemical", "settings": "read-out: IC50 (M) of Control Compound", "protocol": "as §1"}, "[15]": {"biological_target": "T13, NEK7 (Homo sapiens, UniProt Q8TDX7)", "T13 construct": "purchased Reaction Biology Corporation", "T13 sequence (Q8TDX7 whole entry)": "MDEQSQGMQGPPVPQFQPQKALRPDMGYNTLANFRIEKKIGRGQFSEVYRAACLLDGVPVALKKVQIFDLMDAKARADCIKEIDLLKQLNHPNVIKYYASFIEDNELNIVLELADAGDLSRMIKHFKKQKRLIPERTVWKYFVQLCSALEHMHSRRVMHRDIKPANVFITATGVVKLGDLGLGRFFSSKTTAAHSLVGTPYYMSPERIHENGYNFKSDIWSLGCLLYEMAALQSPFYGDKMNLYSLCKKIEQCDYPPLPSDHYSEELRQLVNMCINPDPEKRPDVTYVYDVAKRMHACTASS", "experiment": "HotSpot kinase assay", "type": "biochemical", "settings": "read-out: IC50 (M) of Control Compound", "protocol": "as §1"}, "[16]": {"biological_target": "T14, NEK6 (Homo sapiens, UniProt Q9HC98)", "T14 construct": "purchased Reaction Biology Corporation", "T14 sequence (Q9HC98 whole entry)": "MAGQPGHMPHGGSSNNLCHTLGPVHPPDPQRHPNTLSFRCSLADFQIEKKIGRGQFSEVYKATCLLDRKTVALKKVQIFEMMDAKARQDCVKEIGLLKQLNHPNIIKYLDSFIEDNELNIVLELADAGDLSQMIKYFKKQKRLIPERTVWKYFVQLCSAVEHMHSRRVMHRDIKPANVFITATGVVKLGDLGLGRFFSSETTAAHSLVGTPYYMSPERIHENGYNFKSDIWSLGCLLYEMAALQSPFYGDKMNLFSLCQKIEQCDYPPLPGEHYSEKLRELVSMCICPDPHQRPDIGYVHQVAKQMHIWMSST", "experiment": "HotSpot kinase assay", "type": "biochemical", "settings": "read-out: IC50 (M) of Control Compound", "protocol": "as §1"}},
  "data": [
    {"smiles": "C[C@H]1O[C@@H](O[C@H]2[C@@H](O)C[C@H](O[C@H]3[C@@H](O)C[C@H](O[C@H]4CC[C@@]5(C)[C@H](CC[C@@H]6[C@@H]5C[C@@H](O)[C@]5(C)[C@@H](C7=CC(=O)OC7)CC[C@]65O)C4)O[C@@H]3C)O[C@@H]2C)C[C@H](O)[C@@H]1O", "note": "[Digoxin]", "values": [
      {"measurement": "Papp at 1 h, 5 μM", "setting": "[1]", "value": 3.1, "unit": "×10⁻⁶ cm/s"},
      {"measurement": "Recover %", "setting": "[2]", "value": 96, "unit": "%"}
    ]},
    {"smiles": "Cn1cc(-c2ccc3c(c2)CCN3C(=O)Cc2cccc(C(F)(F)F)c2)c2c(N)ncnc21", "note": "[GSK-2606414, reference compound]", "values": [
      {"measurement": "IC50", "setting": "[3]", "value": "9.62e-08", "unit": "M"}
    ]},
    {"smiles": "O=C1Nc2ccc(I)cc2/C1=C/c1cc(Br)c(O)c(Br)c1", "note": "[GW5074, reference compound]", "values": [
      {"measurement": "IC50", "setting": "[4]", "value": "1.89e-06", "unit": "M"},
      {"measurement": "IC50", "setting": "[5]", "value": "8.63e-06", "unit": "M"},
      {"measurement": "IC50", "setting": "[6]", "value": "5.05e-06", "unit": "M"},
      {"measurement": "IC50", "setting": "[7]", "value": "2.57e-06", "unit": "M"},
      {"measurement": "IC50", "setting": "[8]", "value": "1.39e-08", "unit": "M"},
      {"measurement": "IC50", "setting": "[9]", "value": "1.89e-06", "unit": "M"},
      {"measurement": "IC50", "setting": "[10]", "value": "4.12e-06", "unit": "M"},
      {"measurement": "IC50", "setting": "[11]", "value": "2.67e-07", "unit": "M"}
    ]},
    {"smiles": "CN(C)C/C=C/C(=O)Nc1cccc(C(=O)Nc2ccc(Nc3nccc(-c4cccnc4)n3)cc2)c1", "note": "[JNK-IN-7, reference compound]", "values": [
      {"measurement": "IC50", "setting": "[12]", "value": "5.46e-08", "unit": "M"}
    ]},
    {"smiles": "c1ccc2c(-c3cnn4cc(-c5ccc(N6CCNCC6)cc5)cnc34)ccnc2c1", "note": "[LDN193189, reference compound]", "values": [
      {"measurement": "IC50", "setting": "[13]", "value": "1.09e-07", "unit": "M"}
    ]},
    {"smiles": "CCCCCCCCCCCCCCCCn1cc[n+](Cc2ccccc2)c1C", "note": "[NH125, reference compound]", "values": [
      {"measurement": "IC50", "setting": "[14]", "value": "2.34e-05", "unit": "M"}
    ]},
    {"smiles": "O=C1Nc2ccc3ncsc3c2/C1=C/c1cnc[nH]1", "note": "[PKR Inhibitor, reference compound]", "values": [
      {"measurement": "IC50", "setting": "[15]", "value": "8.35e-06", "unit": "M"},
      {"measurement": "IC50", "setting": "[16]", "value": "9.32e-06", "unit": "M"}
    ]}
  ]
}
